Data set [1] can be described thus: Colour stability of cannabidiol/bisabolol blend with stabilizers (LICO 690, L*a*b, ΔE). It is filed as physicochemical. Particulars: FIG. 2. Here is the method: Colour Stability is an important criterion for customers. Particularly, a product should not change colour during storage. Especially long term stability at room temperature dark stored (RTD) is important, as this simulates storage at a customer. To evaluate effect different antioxidants are tested in common used concentration (see Table 7). Colour is evaluated with LICO 690 (L*a*b-system). Results are compared with ΔE according to the following equation: […]

Another data set has as its system IL8. Nature of the data set: IL8 ELISA on HaCaT cells, inflammation triggered with IL1α. It is filed as cell-based, human. Particulars: for anti-inflammatory activity (IL8 secretion), in words: Example 2; for inhibition at 2.2 µM / inhibition at 4.6 µM / inhibition at 10 µM: Homo sapiens, read-out: IL8 inhibition; for inhibition at 2.2 µM / inhibition at 4.6 µM / inhibition at 10 µM / IL8 inhibition: HaCaT. From the text:
Inflammation in the skin occurs after UV or chemical exposure, microbial infection or wounding to form a defense against pathogens. However, inflammation in response to UV is associated with degenerative processes in the skin resulting in photoaging, wrinkle and age spot formation. In order to identify the Anti-inflammatory (AI) potential of the test samples the inflammatory mediators interleukin 8 (IL8) were quantified, which initiate and mediate inflammation through recruitment of inflammatory cells from the vasculature. Another object has been identification of the synergistic activity of the test substances. For this purpose, the individual cellular AI potential of bisabolol and synthetic CBD (hereinafter referred to as “SymDStress” obtained from Symrise AG, Holzminden, Germany) with their combination in 100:5, 100:4, 100:3, 100:2 and 100:1 ratios were examined.
Interleukin 8 (IL-8) or CXCL8 is a chemokine produced by macrophages and other cell types such as epithelial cells, airway smooth muscle cells and endothelial cells. In humans, the interleukin-8 protein is encoded by the IL8 gene IL-8 is initially produced as a precursor which undergoes cleavage to create several active IL-8 isoforms. In culture, a 72 amino acid peptide is the major form secreted by all kinds of cells. Interleukin-8 is a key mediator associated with inflammation where it plays a key role in neutrophil recruitment and neutrophil degranulation. As an example, it has been cited as a pro-inflammatory mediator in gingivitis, psoriasis and other diseases. IL8 secretion is increased by various kinds of stress including UV & oxidant stress, which thereby cause the recruitment of inflammatory cells and induces a further increase in oxidant stress mediators, making it a key parameter in localized inflammation.
The ELISA assay uses a solid-phase type of enzyme immunoassay (EIA) to detect the presence of a protein in a liquid sample using antibodies directed against the protein to be measured. Performing an ELISA involves at least one antibody with specificity for that particular protein. The sample with an unknown amount of protein is immobilized on a solid support (usually a polystyrene microtiter plate). After the protein is immobilized, the detection antibody is added, forming a complex with the protein. The detection antibody can be covalently linked to an enzyme or can itself be detected by a secondary antibody that is linked to an enzyme through bio-conjugation. Between each step, the plate is typically washed with a mild detergent solution to remove any proteins or antibodies that are non-specifically bound. After the final wash step, the plate is developed by adding an enzymatic substrate to produce a visible signal, which indicates the quantity the protein to be measured in the sample.
In the present test approach, the IL8 produced and secreted by cells were determined in an Enzyme linked immunosorbance assay (ELISA) from cell supernatants utilizing antibodies detecting the IL8. The assay was performed on HaCaT cells by addition of test substances and their incubation for 6 h (37° C.). Afterwards, inflammation was triggered with IL1α for 2 h or respectively 24 h and IL8 was measured. Therefore, the quantitative sandwich enzyme immunoassay technique was employed. A monoclonal antibody specific for human IL-8 was pre-coated onto a microplate. Standards and samples/supernatants were pipetted into the wells and any IL-8 present was bound by the immobilized antibody. After washing away any unbound substances, an enzyme-linked polyclonal antibody specific for human IL-8 was added to the wells. Following a wash to remove any unbound antibody-enzyme reagent, a substrate solution was added. A color developed in proportion to the amount of IL-8 bound in the initial step. Therefore, the IL8 concentrations for unknown samples are interpolated from the standard curve. […]
A general note: ELISA stands for enzyme-linked immunosorbent assay.

The nature of data set [2]: ABTS assay, chemical anti-oxidative capacity. Here is the method: The ABTS-Assay is a cell free in vitro test for the evaluation of the chemical AOX capacity. The assay principle bases on the reduction and the involved de-colorization of the green colored cationic radical 2,2′-Azinobis(3-ethylbenzothiazoline 6-sulfonic acid) (ABTS+) by antioxidants. The de-colorization can be measured photometrically at 734 nm. Determination of the anti-oxidative capacity is performed in 96-well microplates from Nunc (Wiesbaden, Germany) and with the microplate reader “Spark” from Tecan (Crailsheim, Germany).
Samples were incubated for 10 min at 30° C. with the 2,2′-Azinobis-(3-ethylbenzothiazoline-6-sulfonate (ABTS) radical cation (Sigma, St. Louis, USA) obtained by chemical conversion of ABTS with potassium persulfate (K2S2O8). As a positive control Trolox was co-tested. The degree of de-colorization was determined photometrically at 734 nm. Results are averaged from 2 independent experiments performed in quadruple technical replicates. The anti-oxidative capacity is expressed in IC50 values (concentration that scavenges 50% of the cationic radical relative to the untreated ABTS solution), which is determined by 4-parameter logistic regression.

Another data set relates to NHDF cells. The experiment in a line: DCF assay, cellular anti-oxidative capacity (ROS reduction). It counts as cell-based, human. Here is the method:
To quantify intracellular radicals in a cell model the dichlorofluorescein (DCF) assay was performed. Therefore, normal dermal human fibroblasts were used as a model for the skin dermis, where ROS would damage cells and the surrounding tissue, which as opposed to keratinocytes accumulate damage over the human life time. […] By intracellular esterases and oxidation, the non-fluorescent H2DCFDA is converted to the highly fluorescent 2′,7′-dichlorofluorescein (DCF). The non-fluorescent fluorescin (2′,7′-dichlorofluorescein diacetate (DCFH-DA) pass the cell membranes. In the cytoplasm, it is cleaved by intracellular esterases and thereby trapped in the cell. The oxidation of DCFH to DCF by intracellularly existing ROS originated from H2O2 added to the cells (reactive oxygen species) results in fluorescence.
Determination of the anti-oxidative capacity is performed in 96-well microplates from Nunc (Wiesbaden, Germany) and with the microplate reader “Spark” from Tecan (Crailsheim, Germany).
Cells are seeded in a black 96 well microplate with transparent bottom and incubated at 37° C. After 24 hours the cells were starved with 0.1% FBS for 24 h. Then the supernatant is aspirated and the test samples are added and incubated for 24 h. As a positive control Trolox is always co-tested. Then the DCF Assay is performed and the fluorescence is measured from bottom of well at EX/EM 485/528 nm. The cellular AOX capacity is expressed in percent as ROS reduction, which can be determined by rule of proportion in combination with the control.

Data set [3] can be described thus: Recrystallization in emulsion (Olympus microscope IX-70, polarized light). It is filed as physicochemical. Here is the method:
To save energy and reduce CO2 there's a trend for cold process emulsions. So it's recommended to use liquid ingredients or well soluble ingredients. […] Recrystallization is evaluated with Olympus microscope IX-70 (60fold) polarized light. As synergist effects in terms of efficacy had been observed, SymDStress is solved in Dragosantol® 100 (Bisabolol). […] The mixture is suitable for cold/cold, hot/cold and cold/cold process emulsions, gels etc.
As synergist effects in terms of efficacy had been observed, SymD Stress is solved in Dragosantol® 100 (Bisabolol). […] Mixture is suitable for cold/cold, hot/cold and cold/cold process emulsions, gels. […] (see FIG. 1). After 6M 5° C. no change in formulation containing Bisabolol. Bisabolol is a very effective solvent for Cannabidiol and helps to prevent recrystallization in target application.

The nature of a further data set: Water solubility. It is filed as physicochemical.
Data set [4] is described as follows: Color stabilization in o/w emulsion formulation. It counts as physicochemical. Here is the method: Besides colour stability of pure product for end customer colour stability of the formulation is even more important. Discoloration is related for customer to shelf life, reduced efficacy and microbial contamination. Therefore, blends were tested in simple o/w emulsions adding an amino carboxylate and in the alternative a phytic acid salt. The results are shown in […]

The mark [5] stands for this setting: Table 1, 0.000034 % (0.0011 mM).
[6] abbreviates: Table 1, 0.000074 % (0.0023 mM).
The mark [7] stands for this setting: Table 1, 0.000159 % (0.0050 mM).
Setting [8] is: Table 1, 0.000343 % (0.0110 mM).

6 compounds from patent publication US20250332078A1, “COSMETIC AND/OR PHARMACEUTICAL COMPOSITIONS CONTAINING CANNABINOIDS” (priority 2020, published 2025) can be followed below.

As a reminder, the inhibition is the relative decrease from the control value, in per cent.

Read-outs that look alike come from different tables or passages of the source.

Turning to Tocopherol, in data set [1], the “discoloration of solution, in words” value was “can prevent solution from discoloration”.

`C=C(C)[C@@H]1CCC(C)=C[C@H]1c1c(O)cc(CCCCC)cc1O` [CBD (synthetic), cannabidiol]: the “anti-inflammatory activity (IL8 secretion), in words” value in the data set on IL8 is “significant anti-inflammatory activity”. For the same compound, the inhibition at 2.2 µM in the data set on IL8 came out at 6%. In addition, the inhibition at 4.6 µM in the data set with IL8 was 18%. In addition, the inhibition at 10 µM in the data set with IL8 worked out at 31%. For the same compound, the IL8 inhibition is −0.84% in the data set with IL8 (setting [5]); 13.91% in the data set with IL8 (setting [6]); 25.98% in the data set on IL8 (setting [7]); 34.25% in the data set on IL8 (setting [8]); 21% in the data set on IL8 (Table 3, 0.000150 % (0.005 mM)). Further, in data set [2], the “AOX capacity compared to the technical positive control, in words” value was “higher AOX capacity”. The Anti-oxidative capacity in data set [2] (0.0000160 %) is given as 23%; in data set [2] (0.0000310 %) it was 28%; in data set [2] (0.000160 %), 84%; in data set [2] (0.000310 %), 96%; in data set [2] (0.000470 %), 100%; in data set [2] (0.000630 %) it was 100%. Moreover, the ROS reduction in the data set on NHDF cells (Table 5, 0.0000031 % (0.0001 mMol/l)) stood at 24.01%; in the data set with NHDF cells (Table 5, 0.0000063 % (0.0002 mMol/l)), 35.43%; in the data set on NHDF cells (Table 5, 0.0000126 % (0.0004 mMol/l)), 34.74%; in the data set on NHDF cells (Table 5, 0.0000157 % (0.0005 mMol/l)) it was 34.55%; with NHDF cells (Table 5, 0.0000397 % (0.0013 mMol/l)), 40.61%; with NHDF cells (Table 5, 0.0000496 % (0.0016 mMol/l)) it was 48.96%. Further, the ROS reduction in the data set on NHDF cells (Table 5, 0.000094 % (0.0003 mMol/l)) was 40.4%; in the data set with NHDF cells (Table 6, 0.000001256 % (0.00004 mMol/l)), 7.20%; in the data set with NHDF cells (Table 6, 0.000001570 % (0.00005 mMol/l)), −5.44%. For the same compound, the “reducing intracellular ROS expression” value in the data set with NHDF cells (summary of Table 5) is listed as “up to 50%”. Besides, the recrystallization in formulation result in data set [3] (0.025% CBD, after 1M 5° C.) is recorded as “recrystallization can be observed”. Also, the recrystallization in emulsion entry in data set [3] (after 1M at Room temperature dark (RTD) storage) is “recrystallization in emulsion is observed”. Also, in “Water solubility”, the “water solubility, in words” value was “low water solubility”.

Turning to `O=C([O-])CC[C@@H](C(=O)[O-])N(CC(=O)[O-])CC(=O)[O-].[Na+].[Na+].[Na+].[Na+]` [Tetrasodium Glutamate Diacetate], in data set [4] (Table 9, FIG. 4), the “discoloration in the end-formulation, in words” value was “reduced discoloration”.

Turning to `C=C(C)[C@@H]1CCC(C)=C[C@H]1c1c(O)cc(CCCCC)cc1O` [CBD (natural), cannabidiol, reference compound], the IL8 inhibition is −0.85% with IL8 (setting [5]), 4.84% in the data set with IL8 (setting [6]), 11.42% with IL8 (setting [7]) and 31.90% in the data set on IL8 (setting [8]).

In the case of `O=C([O-])CN(CCN(CC(=O)[O-])CC(=O)O)CC(=O)O.[Na+].[Na+]` [Disodium EDTA], in data set [4] (after 1M storage at RTL, FIG. 3), the “discoloration of formulation, in words” value is recorded as “excellent stabilizing agent against discoloration”.

As to `CC(C)=CCC[C@](C)(O)[C@@H]1CC=C(C)CC1` [α-bisabolol, alpha-bisabolol], the “anti-inflammatory activity (IL8 secretion), in words” value in the data set with IL8 was “opposite effect”. The inhibition at 2.2 µM in the data set on IL8 (Table 2, 0.0022 mM) is -14%. The inhibition at 4.6 µM in the data set on IL8 (Table 2, 0.0046 mM) was -3%. For the same compound, the inhibition at 10 µM in the data set with IL8 (Table 2, 0.01000 mM) came to 1%. In the data set on IL8 (Table 3, 0.002847 % (0.100 mM)), the IL8 inhibition came to 39%. Moreover, the ROS reduction in the data set on NHDF cells (Table 6, 0.00002847 % (0.00100 mMol/l)) is reported as 10.61%.
